Measurements reported in patent publication US20250282779A1, “SUBSTITUTED 5,6,7,8-TETRAHYDROPYRIDO[2,3-D]PYRIMIDINE-2,4-DIONES FOR TREATING CARDIAC DISEASES” (MYOKARDIA, INC., priority 2018, published 2025).

Assays:
rabbit skeletal myosin = test: Myosin inhibition assay (rbskMF pCa 6 IC50); format: biochemical; settings: cardiac vs rabbit skeletal myofibrils
Excerpt: Myosin inhibition assay (rbskMF pCa 6 IC50 (μM))
Inhibition of the enzymatic activity of rabbit skeletal myosin associated with the release of ADP (adenosine diphosphate) at the calcium concentrate that achieves a 50% activation of the rabbit skeletal myofibril system. The procedure was the same as that of bovin cardiac myosin inhibition assay (bcMF pCa 6 IC50 (μM)) by replacing bovine cardiac myofibril with rabbit skeletal myofibril.

bovine cardiac myosin [1] = target: T1, bovine cardiac myosin (Bos taurus (Bovine), UniProt Q9BE39); test: Myosin inhibition assay (bcMF serum pCa 6 IC50), 10% human serum; format: biochemical; settings: in the presence of 10% human serum
Excerpt: Myosin Inhibition Assay (bcMF Serum pCa 6 IC50 (μM))
Inhibition of the enzymatic activity of bovine cardiac myosin associated with the release of ADP (adenosine diphosphate) at the calcium concentrate that achieves a 50% activation of the bovine cardiac myofibril system in the presence of 10% human serum. The procedure was the same as that bovin cardiac myosin inhibition assay (bcMF pCa 6 IC50 (μM)) but with the addition of 10% human serum.

[2] = system: adult rat ventricular myocytes; test: Cardiomyocyte contractility assay; format: cell-based; settings: 0.3 μM compound; for inhibition at 0.3 µM: Rattus norvegicus, Ventricular myocyte, fractional shortening, myocytes paced at 1 Hz, read-out: % inhibition of FS at 0.3 μM
Procedure: Cardiomyocyte Contractility Assay
Contractility of adult rat ventricular myocytes is determined by edge detection with an IonOptix contractility system. Aliquots of myocytes in Tyrode buffer (137 mM NaCl, 3.7 mM KCL, 0.5 mM MgCl2, 1.5 mM CaCl2, 4 mM HEPES, 11 mM glucose) are placed in a perfusion chamber (Series 20 RC-27NE; Warner Instruments), allowed to adhere to the coverslip, and then perfused with 37° C. Tyrode buffer. Myocytes are filed stimulated at 1 Hz and 10V. Only myocytes with clear striations, quiescent prior to pacing, with a cell length of 120-180 microns, a basal fractional shortening equal to 3-8% of the cell length, and a contraction velocity greater than 100 microns per second are used for contractility experiments. To determine the response to compounds (at 0.3 μM concentration), myocytes are first perfused for 60 seconds with Tyrodes buffer followed by 5 min of compound and a 140 second washout with Tyrodes buffer. Data is continuously recorded using IonOptix software. Contractility data is analyzed using Ionwizard software (IonOptix). For each cell, 10-20 contractility transients were averaged and compared under basal (no compound) and compound-treated conditions. Compound activity is measured by effects on fractional shortening (FS), where fractional shortening is the ratio of the peak length of the cell at contraction divided by the basal cell length normalized to 100% for an untreated cell. The % inhibition measurement is calculated by subtracting the FS value from 100%.

bovine cardiac myosin [3] = target: T1, bovine cardiac myosin; test: Myosin inhibition assay (bcMF pCa 6 IC50); format: biochemical; settings: bovine cardiac myofibrils, calcium giving 50% activation
Procedure: Myosin inhibition assay (bcMF pCa 6IC50 (μM))
Small molecule agents were assessed for their ability to inhibit the enzymatic activity of bovine cardiac myosin using a biochemical assay that couples the release of ADP (adenosine diphosphate) from cardiac myosin to an enzymatic coupling system consisting of pyruvate kinase and lactate dehydrogenase (PK/LDH) and monitoring the absorbance decrease of NADH (at 340 nm) as a function of time. PK converts ADP to ATP (adenosine triphosphate) by converting PEP (phosphoenolpyruvate) to pyruvate. Pyruvate is then converted to lactate by LDH by converting NADH (nicotinamide adenine dinucleotide) to NAD (oxidized nicotinamide adenine dinucleotide). The source of cardiac myosin was from bovine heart in the form of skinned myofibrils. Prior to testing small molecule agents, the bovine myofibrils were assessed for their calcium responsiveness and the calcium concentration that achieves a 50% activation of the myofibril system was chosen as the final condition for assessing the inhibitory activity of the small molecule agents. All enzymatic activity was measured in a buffered solution containing 12 mM PIPES (piperazine-N,N′-bis(2-ethanesulfonic acid), 2 mM magnesium chloride at pH 6.8 (PM12 buffer). Final assay conditions were 1 mg/mL of bovine cardiac myofibrils, 0.4 mM PK/LDH, 50 uM ATP, 0.1 mg/mL BSA (bovine serum albumin), 10 ppm antifoam, 2 mM BME, 0.5 mM NADH, and 1.5 mM PEP at the desired free calcium concentration required to achieve 50% activation of the myofibrils.
A dilution series of compound was created in DMSO such that the final desired concentration of compound would be achieved in a volume of 30 μL with a fixed DMSO concentration of 3.3% (v/v). Typically 1 μL of the dilution series were added to 384 well plate to achieve a 10 point dose response. Following the addition of 14 μL of a solution containing bovine cardiac myofibrils, PK/LDH and a solution of calcium (that achieved 50% activation), the enzymatic reaction was started with the addition of 15 μL of a solution containing ATP, PEP and NADH. The reaction progress was followed in a PerkinElmer Envision plate reader at ambient temperature using clear bottom plates. The plate reader was configured to read absorbance at 340 nm in kinetics mode for 15 minutes. Data were recorded as the slope of the absorbance response to time. The slopes of the absorbance response as a function of time were normalized to slopes on the plate containing DMSO. This normalized rate was then plotted as a function of small molecule concentration and the data was fitted to a four-parameter fit using EXCEL XLfit. The IC50 is the concentration at which fifty percent of the total response is inhibited.

T1 sequence (Q9BE39 whole entry): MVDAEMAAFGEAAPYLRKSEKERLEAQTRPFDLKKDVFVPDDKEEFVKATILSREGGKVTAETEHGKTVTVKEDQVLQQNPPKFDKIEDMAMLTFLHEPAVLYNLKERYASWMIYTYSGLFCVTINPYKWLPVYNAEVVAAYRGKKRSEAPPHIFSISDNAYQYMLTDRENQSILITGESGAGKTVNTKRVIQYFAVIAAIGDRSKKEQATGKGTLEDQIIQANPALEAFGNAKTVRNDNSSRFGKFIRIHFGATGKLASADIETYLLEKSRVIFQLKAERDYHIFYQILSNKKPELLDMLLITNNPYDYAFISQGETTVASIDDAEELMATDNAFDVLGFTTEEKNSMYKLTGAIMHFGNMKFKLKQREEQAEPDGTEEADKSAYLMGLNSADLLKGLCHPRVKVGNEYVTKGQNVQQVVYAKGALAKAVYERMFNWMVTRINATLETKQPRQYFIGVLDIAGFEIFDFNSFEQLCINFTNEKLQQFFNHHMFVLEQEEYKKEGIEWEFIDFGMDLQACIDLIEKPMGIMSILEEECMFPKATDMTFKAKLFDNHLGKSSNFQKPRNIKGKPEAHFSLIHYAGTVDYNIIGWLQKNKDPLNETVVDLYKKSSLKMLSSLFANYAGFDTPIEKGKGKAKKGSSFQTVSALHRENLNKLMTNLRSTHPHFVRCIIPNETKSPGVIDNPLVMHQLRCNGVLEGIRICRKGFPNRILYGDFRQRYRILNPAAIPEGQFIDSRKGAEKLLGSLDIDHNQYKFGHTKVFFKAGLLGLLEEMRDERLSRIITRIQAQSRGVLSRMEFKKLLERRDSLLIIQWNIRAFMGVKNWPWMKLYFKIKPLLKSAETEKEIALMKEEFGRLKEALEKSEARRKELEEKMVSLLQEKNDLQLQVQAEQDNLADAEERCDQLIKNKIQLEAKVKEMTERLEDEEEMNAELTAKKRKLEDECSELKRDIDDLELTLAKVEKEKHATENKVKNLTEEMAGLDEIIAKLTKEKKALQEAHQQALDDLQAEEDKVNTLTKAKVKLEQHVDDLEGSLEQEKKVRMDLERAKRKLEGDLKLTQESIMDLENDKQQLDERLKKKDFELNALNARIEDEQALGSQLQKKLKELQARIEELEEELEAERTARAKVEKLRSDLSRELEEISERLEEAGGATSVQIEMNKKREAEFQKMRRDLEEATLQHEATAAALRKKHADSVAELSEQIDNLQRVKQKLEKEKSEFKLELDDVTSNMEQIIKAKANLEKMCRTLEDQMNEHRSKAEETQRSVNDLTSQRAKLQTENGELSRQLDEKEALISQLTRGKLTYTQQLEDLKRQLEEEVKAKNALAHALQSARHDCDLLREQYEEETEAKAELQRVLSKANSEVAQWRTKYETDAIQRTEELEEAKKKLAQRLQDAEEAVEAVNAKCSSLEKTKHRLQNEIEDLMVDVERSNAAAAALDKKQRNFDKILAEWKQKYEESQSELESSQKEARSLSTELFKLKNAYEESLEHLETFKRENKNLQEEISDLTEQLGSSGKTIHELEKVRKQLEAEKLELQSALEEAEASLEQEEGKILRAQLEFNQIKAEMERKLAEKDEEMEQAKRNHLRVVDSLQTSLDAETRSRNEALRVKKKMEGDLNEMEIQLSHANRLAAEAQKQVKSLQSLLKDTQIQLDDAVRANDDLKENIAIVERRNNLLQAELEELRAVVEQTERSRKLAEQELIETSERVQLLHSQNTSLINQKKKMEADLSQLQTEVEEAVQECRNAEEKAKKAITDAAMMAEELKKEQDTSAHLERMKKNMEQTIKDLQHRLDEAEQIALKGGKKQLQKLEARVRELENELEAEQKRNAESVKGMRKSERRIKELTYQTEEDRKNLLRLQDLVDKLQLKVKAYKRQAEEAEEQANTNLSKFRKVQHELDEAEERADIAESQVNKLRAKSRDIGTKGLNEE
T1 sequence (P85100 whole entry partner): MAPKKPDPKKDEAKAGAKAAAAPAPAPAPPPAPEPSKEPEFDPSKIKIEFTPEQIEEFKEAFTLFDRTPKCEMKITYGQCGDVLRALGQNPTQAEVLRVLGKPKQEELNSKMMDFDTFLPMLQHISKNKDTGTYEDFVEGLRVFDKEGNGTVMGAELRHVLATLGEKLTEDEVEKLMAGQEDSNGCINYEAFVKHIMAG
T1 sequence (Q3SZE5 whole entry partner): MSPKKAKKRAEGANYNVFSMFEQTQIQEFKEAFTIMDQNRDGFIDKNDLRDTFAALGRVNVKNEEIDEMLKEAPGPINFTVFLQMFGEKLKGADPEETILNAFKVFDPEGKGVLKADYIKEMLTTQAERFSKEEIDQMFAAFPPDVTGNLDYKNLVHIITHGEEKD

| IC50 (bovine cardiac myosin [1]) [nM] | observation in cardiomyocyte contractility assay [2] | IC50 (bovine cardiac myosin [3]; read-out: bcMF pCa 6 IC50) [nM] | IC50 (bovine cardiac myosin [3]; read-out: bcMF pCa_6 IC50 MEAN) [nM] | SMILES | Cardiac selectivity ratio vs rbskMF pCa 6 IC50 (rabbit skeletal myosin) | inhibition at 0.3 µM [2] [%] |
| --- | --- | --- | --- | --- | --- | --- |
| 3490 | Early after depolarization or EAD | 1570 |  | O=c1[nH]c2c(c(=O)n1C1CCOCC1)CC(F)(F)[C@H](c1cccc(F)c1)N2 [Compound C-1, (S)-6,6-difluoro-7-(3-fluorophenyl)-3-(tetrahydro-2H-pyran-4-yl)-5,6,7,8-tetrahydropyrido[2,3-d]pyrimidine-2,4(1H,3H)-dione, reference compound] | 5.48 | 33 to 66 |
| 1560 |  | 1110 | 1110 | Cc1ccc(F)c([C@@H]2Nc3[nH]c(=O)n(C4CCOCC4)c(=O)c3C[C@@H]2F)c1 [Compound 3, (6S,7S)-6-fluoro-7-(2-fluoro-5-methylphenyl)-3-(tetrahydro-2H-pyran-4-yl)-5,6,7,8-tetrahydropyrido[2,3-d]pyrimidine-2, 4 (1H, 3H)-dione] | 4.51 | > 66 |
